Laboratory results reported in article PMC9699193, “Activation of a Sweet Taste Receptor by Oleanane-Type Glycosides from Wisteria sinensis” (Molecules, 2022).
Where two headings read alike, the source gives them in different places.

Molecular target: T1, TAS1R2/TAS1R3 sweet taste receptor (Homo sapiens, UniProt Q7RTX0+Q8TE23)
T1 construct: with TAS1R3
T1 sequence (Q8TE23 20-839): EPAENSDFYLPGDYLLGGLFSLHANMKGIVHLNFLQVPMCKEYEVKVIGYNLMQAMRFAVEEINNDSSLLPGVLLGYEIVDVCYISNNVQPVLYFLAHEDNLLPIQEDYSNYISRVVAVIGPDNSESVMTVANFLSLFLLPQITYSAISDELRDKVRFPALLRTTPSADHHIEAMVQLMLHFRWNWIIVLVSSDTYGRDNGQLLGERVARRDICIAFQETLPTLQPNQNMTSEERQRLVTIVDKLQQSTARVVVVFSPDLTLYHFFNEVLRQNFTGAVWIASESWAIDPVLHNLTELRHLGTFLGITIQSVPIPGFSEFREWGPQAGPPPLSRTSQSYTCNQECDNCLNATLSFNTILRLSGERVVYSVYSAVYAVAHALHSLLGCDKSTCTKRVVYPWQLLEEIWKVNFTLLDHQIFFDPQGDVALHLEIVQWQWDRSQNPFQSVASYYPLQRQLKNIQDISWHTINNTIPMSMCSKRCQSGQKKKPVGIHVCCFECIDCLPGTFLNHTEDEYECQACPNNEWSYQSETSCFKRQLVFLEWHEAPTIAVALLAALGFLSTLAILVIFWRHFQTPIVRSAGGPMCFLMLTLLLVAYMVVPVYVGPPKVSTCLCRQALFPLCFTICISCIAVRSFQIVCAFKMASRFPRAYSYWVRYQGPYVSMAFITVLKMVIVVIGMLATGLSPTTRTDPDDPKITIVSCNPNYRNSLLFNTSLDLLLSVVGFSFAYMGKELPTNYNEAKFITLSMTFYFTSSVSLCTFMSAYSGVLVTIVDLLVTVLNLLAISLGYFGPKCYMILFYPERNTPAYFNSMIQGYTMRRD
T1 sequence (Q7RTX0 21-852): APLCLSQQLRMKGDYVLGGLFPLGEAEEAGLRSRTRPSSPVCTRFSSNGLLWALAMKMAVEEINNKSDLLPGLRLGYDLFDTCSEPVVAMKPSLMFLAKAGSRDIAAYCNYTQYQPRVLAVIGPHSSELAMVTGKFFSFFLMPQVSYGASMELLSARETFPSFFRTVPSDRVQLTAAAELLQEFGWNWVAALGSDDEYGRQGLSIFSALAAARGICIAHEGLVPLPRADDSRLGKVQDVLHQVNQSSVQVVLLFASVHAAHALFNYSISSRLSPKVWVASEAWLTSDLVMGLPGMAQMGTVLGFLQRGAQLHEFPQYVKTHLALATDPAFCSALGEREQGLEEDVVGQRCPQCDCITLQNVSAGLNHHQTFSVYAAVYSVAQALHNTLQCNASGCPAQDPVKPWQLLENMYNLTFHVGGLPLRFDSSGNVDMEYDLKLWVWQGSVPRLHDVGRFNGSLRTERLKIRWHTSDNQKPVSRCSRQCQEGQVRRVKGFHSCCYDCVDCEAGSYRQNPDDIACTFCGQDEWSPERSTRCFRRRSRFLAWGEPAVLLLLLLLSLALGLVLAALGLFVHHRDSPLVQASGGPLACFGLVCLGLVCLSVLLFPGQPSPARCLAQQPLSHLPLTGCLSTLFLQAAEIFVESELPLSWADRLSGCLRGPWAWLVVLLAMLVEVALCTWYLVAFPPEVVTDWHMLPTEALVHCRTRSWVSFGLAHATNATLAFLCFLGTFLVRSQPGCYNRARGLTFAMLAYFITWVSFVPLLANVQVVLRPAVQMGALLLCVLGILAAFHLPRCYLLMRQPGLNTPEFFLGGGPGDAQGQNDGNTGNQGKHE
Experiment: GCaMP6S calcium imaging in HEK293T-Gα[…]gust44 cells expressing TAS1R2/TAS1R3, mock-corrected
Format: cell-based

## CC1(C)[C@@H](O[C@H]2O[C@H](C(=O)O)[C@@H](O)[C@H](O)[C@H]2O[C@@H]2O[C@H](C(=O)O)[C@@H](O)[C@H](O)[C@H]2O)CC[C@]2(C)[C@H]3C(=O)C=C4[C@@H]5C[C@@](C)(C(=O)O)CC[C@]5(C)CC[C@@]4(C)[C@]3(C)CC[C@@H]12 [glycyrrhizin]
  EC50: 41.3 µM

## C[C@]1(CO)CC(=O)[C@]2(C)CC[C@]3(C)C(=CCC4[C@@]5(C)CC[C@H](OC6O[C@H](C(=O)O)[C@@H](O)[C@H](O)[C@H]6O[C@@H]6OC[C@@H](O)[C@H](O)[C@H]6O)[C@](C)(CO)C5CC[C@]43C)C2C1 (stereo partly drawn) [compound 2, 3-O-β-D-xylopyranosyl-(1→2)-β-D-glucuronopyranosylwistariasapogenol A]
  EC50: 35.9 µM

## OC[C@H]1O[C@H](O[C@]2(CCl)O[C@H](CCl)[C@@H](O)[C@@H]2O)[C@H](O)[C@@H](O)[C@H]1Cl [sucralose, reference compound]
read-out: EC50 (converted)
  EC50: 40.2 µM

## C[C@@H]1O[C@@H](O[C@H]2[C@H](O[C@H]3C(O[C@H]4CC[C@@]5(C)C(CC[C@]6(C)C5CC=C5C7C[C@@](C)(CO)CC(=O)[C@]7(C)CC[C@]56C)[C@@]4(C)CO)O[C@H](C(=O)O)[C@@H](O)[C@@H]3O)OC[C@@H](O)[C@@H]2O)[C@H](O)[C@H](O)[C@H]1O (stereo partly drawn) [compound 3, 3-O-α-L-rhamnopyranosyl-(1→2)-β-D-xylopyranosyl-(1→2)-β-D-glucuronopyranosywistariasapogenol A]
  EC50: 31.3 µM
